Results reported in patent US9980904B2, “Dry powder formulation” (Teva Branded Pharmaceutical Products R&D, Inc., priority 2014, dated 2018).

Legend:
Assay type in all cases: physicochemical
[1] = Study 1 equilibration study: aerodynamic particle size distribution analysis (FPF and FPD) after 6 week equilibration
Experimental: (§1) Two batches of fluticasone/salmeterol housed within a Spiromax® device were prepared. […] Each batch was divided into two and equilibrated for six weeks under the conditions specified by each protocol. Protocol 1: 30° C./65% RH (unwrapped) Protocol 2: 40° C. […] Two batches of fluticasone/salmeterol housed within a Spiromax® device were prepared. Combination batches of fluticasone propionate and salmeterol xinafoate were selected at two different strengths, as in study 1. Each batch was divided into two and equilibrated for six weeks under the conditions specified by each protocol. Protocol 1: 30° C./65% RH (unwrapped) Protocol 3: 40° C.

[2] = Study 2 equilibration study: aerodynamic particle size distribution analysis (FPF and FPD) during 6 week equilibration
Experimental: as §1

[3] = Study 3 eight week in-use stability study: aerodynamic particle size distribution (FPF and FPD); settings: eight week in-use at 30° C./65% RH (unwrapped) after equilibration by protocol 2
Experimental: (§2) Following inhaler equilibration according to protocol 2 (six weeks at 40° C./75% RH wrapped in foil with desiccant), eight-week stability tests of fluticasone propionate and salmeterol xinafoate (25 μg/25 μg and 100 μg/25 μg) were conducted. The in-use stability testing was conducted at 30° C./65% RH (unwrapped) as per discussion with the FDA. […] Following inhaler equilibration according to protocol 3 (six weeks at 40° C. wrapped in foil with desiccant), six-month stability tests of fluticasone propionate and salmeterol xinafoate (25 μg/25 μg and 100 μg/25 μg) were conducted. The stability of the formulations was assessed following storage under two different condition sets.

[4] = Study 4 six month stability study: aerodynamic particle size distribution (FPF and FPD)
Experimental: as §2

[5] = Study 1, batch 25/25 μg Fp/Sx in Spiromax, 30° C./65% RH (unwrapped)
[6] = Study 1, batch 25/25 μg, 40° C. (wrapped in foil with desiccant)
[7] = Study 1, batch 100/25 μg, 30° C./65% RH (unwrapped)
[8] = Study 1, batch 100/25 μg, 40° C. (wrapped in foil with desiccant)
[9] = Study 2, batch 25/25 μg, 30° C./65% RH (unwrapped)
[10] = Study 2, batch 25/25 μg, 40° C. (wrapped in foil with desiccant)
[11] = Study 2, batch 100/25 μg, 30° C./65% RH (unwrapped)
[12] = Study 2, batch 100/25 μg, 40° C. (wrapped in foil with desiccant)
[13] = Study 4, batch 25/25, six month storage at 25° C./60% RH (wrapped) after equilibration by protocol 3
[14] = Study 4, batch 25/25, six month storage at 40° C. (wrapped) after equilibration by protocol 3
[15] = Study 4, batch 100/25, six month storage at 25° C./60% RH (wrapped) after equilibration by protocol 3
[16] = Study 4, batch 100/25, six month storage at 40° C. (wrapped) after equilibration by protocol 3

## CCC(=O)O[C@]1(C(=O)SCF)[C@H](C)C[C@H]2[C@@H]3C[C@H](F)C4=CC(=O)C=C[C@]4(C)[C@@]3(F)[C@@H](O)C[C@@]21C [Fp, fluticasone propionate]
[1]; [5]
  Aerodynamic particle size distribution (% change from base) FPD: −16%
  Aerodynamic particle size distribution (% change from base) FPF: −19%
[1]; [6]
  Aerodynamic particle size distribution (% change from base) FPD: −13%
  Aerodynamic particle size distribution (% change from base) FPF: −12%
[1]; [7]
  Aerodynamic particle size distribution (% change from base) FPD: −13%
  Aerodynamic particle size distribution (% change from base) FPF: −12%
[1]; [8]
  Aerodynamic particle size distribution (% change from base) FPD: −17%
  Aerodynamic particle size distribution (% change from base) FPF: −14%
[2]; [9]
  Aerodynamic particle size distribution (% change from base) FPD: −19%
  Aerodynamic particle size distribution (% change from base) FPF: −16%
[2]; [10]
  Aerodynamic particle size distribution (% change from base) FPD: −13%
  Aerodynamic particle size distribution (% change from base) FPF: −12%
[2]; [11]
  Aerodynamic particle size distribution (% change from base) FPD: −12%
  Aerodynamic particle size distribution (% change from base) FPF: −12%
[2]; [12]
  Aerodynamic particle size distribution (% change from base) FPD: −16%
  Aerodynamic particle size distribution (% change from base) FPF: −14%
[3]; Study 3, batch 25/25 μg
  Aerodynamic particle size distribution (% change from base) FPD: −10%
  Aerodynamic particle size distribution (% change from base) FPF: −9%
[3]; Study 3, batch 100/25 μg
  Aerodynamic particle size distribution (% change from base) FPD: 0%
  Aerodynamic particle size distribution (% change from base) FPF: 0%
[4]; [13]
  Aerodynamic particle size distribution (% change from base) FPD: −4%
  Aerodynamic particle size distribution (% change from base) FPF: 0%
[4]; [14]
  Aerodynamic particle size distribution (% change from base) FPD: −9%
  Aerodynamic particle size distribution (% change from base) FPF: −6%
[4]; [15]
  Aerodynamic particle size distribution (% change from base) FPD: 0%
  Aerodynamic particle size distribution (% change from base) FPF: 0%
[4]; [16]
  Aerodynamic particle size distribution (% change from base) FPD: −8%
  Aerodynamic particle size distribution (% change from base) FPF: −6%

## OCc1cc(C(O)CNCCCCCCOCCCCc2ccccc2)ccc1O (centres unmarked) [Sx, salmeterol xinafoate]
[1]; [5]
  Aerodynamic particle size distribution (% change from base) FPD: −20%
  Aerodynamic particle size distribution (% change from base) FPF: −19%
[1]; [6]
  Aerodynamic particle size distribution (% change from base) FPD: −2%
  Aerodynamic particle size distribution (% change from base) FPF: −2%
[1]; [7]
  Aerodynamic particle size distribution (% change from base) FPD: −9%
  Aerodynamic particle size distribution (% change from base) FPF: −10%
[1]; [8]
  Aerodynamic particle size distribution (% change from base) FPD: 0%
  Aerodynamic particle size distribution (% change from base) FPF: 0%
[2]; [9]
  Aerodynamic particle size distribution (% change from base) FPD: −20%
  Aerodynamic particle size distribution (% change from base) FPF: −18%
[2]; [10]
  Aerodynamic particle size distribution (% change from base) FPD: −2%
  Aerodynamic particle size distribution (% change from base) FPF: −2%
[2]; [11]
  Aerodynamic particle size distribution (% change from base) FPD: −9%
  Aerodynamic particle size distribution (% change from base) FPF: −10%
[2]; [12]
  Aerodynamic particle size distribution (% change from base) FPD: 0%
  Aerodynamic particle size distribution (% change from base) FPF: 0%
[3]; Study 3, batch 25/25 μg
  Aerodynamic particle size distribution (% change from base) FPD: −17%
  Aerodynamic particle size distribution (% change from base) FPF: −14%
[3]; Study 3, batch 100/25 μg
  Aerodynamic particle size distribution (% change from base) FPD: −4%
  Aerodynamic particle size distribution (% change from base) FPF: −3%
[4]; [13]
  Aerodynamic particle size distribution (% change from base) FPD: −5%
  Aerodynamic particle size distribution (% change from base) FPF: 0%
[4]; [14]
  Aerodynamic particle size distribution (% change from base) FPD: −9%
  Aerodynamic particle size distribution (% change from base) FPF: −4%
[4]; [15]
  Aerodynamic particle size distribution (% change from base) FPD: −3%
  Aerodynamic particle size distribution (% change from base) FPF: −1%
[4]; [16]
  Aerodynamic particle size distribution (% change from base) FPD: −13%
  Aerodynamic particle size distribution (% change from base) FPF: −9%
